Test results: EP1144412B1, “IMMUNOSUPPRESSIVE EFFECTS OF PTERIDINE DERIVATIVES” (4 AZA Bioscience nv, priority 1998, dated 2000)
Read-outs that look alike come from different tables or passages of the source.

Experiments:
Highly purified T cells [1] = assay: T cell proliferation induced by anti-CD3 mAb + PMA (BrdU incorporation); type: cell-based, Human; settings: Homo sapiens, T-cell
Description: (§1) Various models may be used for testing an immunosuppressive effect. In vivo, for example, different transplantation models are available. They are strongly influenced by different immunogenicities, depending on the donor and recipient species used and depending on the nature of the transplanted organ. The survival time of transplanted organs can thus be used to measure the suppression of the immune response. In vitro, there exist also various models. The most used are lymphocyte activation tests. Usually activation is measured via lymphocyte proliferation. Inhibition of proliferation thus always means immunosuppression under the experimental conditions applied. There exist different stimuli for lymphocyte activation: • coculture of lymphocytes of […] (MLR = mixed lymphocyte reaction): lymphocytes expressing different minor and major antigens of the HLA-DR type (= alloantigens) activate each other non-specifically. • CD3 assay: here there is an activation of the T-lymphocytes via an exogenously added antibody (OKT3). This antibody reacts against the CD3 molecule located on the lymphocyte membrane. This molecule has a costimulatory function. […] This molecule is also located on the lymphocyte membrane, and delivers strong costimulatory signals.
(§2) T cells were purified by removing non-T cells. Briefly,monocytes were removed by cold agglutination. The resulting lymphoid cells were further purified by a cell enrichment immunocolumn [Cellect Human T (Biotex, Edmonton, Alberta, Canada)] by a process of negative selection.
(§3) Measurements of T cell proliferations induced by anti-CD3 mAb + PMA or anti-CD28 mAb + PMA
(§4) Highly purified T cells (10^6/ml) were stimulated by immobilized anti-CD3 àr anti-CD28 mAb in the presence of PMA. Anti-CD3 mAb (CLB-CD3; CLB, Amsterdam, The Netherlands) were fixed on the 96-microwell plates by incubating the wells with 50 µl of mAb solution (1/800 dilution in culture medium). Anti-CD28 mAb (CLB-CD28; CLB, Amsterdam, The Netherlands) 50 µl (1/650 dilution in culture medium) was added directly to the wells. Further, 20 µl PMA (Sigma, St. Louis, MO, USA) solution (final concentration: 0.5 ng/ml) was added. Subsequently, 20 µl of immunosuppressants were added by serial dilution in triplicate wells. Finally 100 µl of the T cell suspension (10^6/ml) was added. After 48-hour incubation at 37EC in 5% CO2 20 Φl BrdU (100 ΦM solution) (Cell Proliferation Elisa, Boehringer-Mannheim Belgium) was added to each well. After a further overnight incubation the T cell proliferation was measured using a colorimetric immunoassay for qualification of cell proliferation based on measurements of the incorporation of BrdU during DNAsynthesis. The optical density (OD) was measured by a Behring EL311 plate reader at 450 nm (reference wavelength: 690 nm). The percent suppression of proliferation by drugs was counted using the formula: Per cent inhibition =((OD + drugs) - (OD Cult. Med.))/((OD - drugs) - (OD Cult. Med.))x 100 [formula]

Highly purified T cells [2] = assay: T cell proliferation induced by anti-CD28 mAb + PMA (BrdU incorporation); type: cell-based, Human; settings: Homo sapiens, T-cell
Description: as §1, §2, §3, §4

[3] = test system: Peripheral blood mononuclear cells (PBMC); assay: Mixed lymphocyte reaction (MLR), [3H]-thymidine incorporation; type: cell-based; settings: Homo sapiens
Description: as §1
Peripheral blood mononuclear cells (PBMC) were isolated from heparinized peripheral blood by density gradient centrifugation over Lymphoprep (Nycomed, Maorstua, Norway). Allogeneic PBMC or EBV-transformed human B cells [RPMI1788 (ATCC name CCL156)] which strongly express B7-1 and B7-2 were used as stimulator cells after irradiation with 30 Gy. MLR was performed in triplicate wells. After 5 days incubation at 37EC, 1 µCi [^3H]-thymidine was added to each cup. After a further 16 hours incubation, cells were harvested and counted in a β-counter.
The percent suppression of proliferation by drugs was counted using the formula Percent inhibition =((cpm + drugs) - cpm Cult. Med)/((cpm - drugs) - cpm Cult. Med.)x 100 [formula]

[4] = Table II, read-out: IC50 in µM of pteridine derivative ACD3
[5] = untitled structure table, no unit printed there, same values in Table II as IC50 in µM, read-out: aCD3
[6] = Table II, read-out: IC50 in µM of pteridine derivative aCD28
[7] = untitled structure table, no unit printed there, same values in Table II as IC50 in µM, read-out: aCD28
[8] = Table II, read-out: IC50 in µM of pteridine derivative MLR
[9] = untitled structure table, no unit printed there, same values in Table II as IC50 in µM, read-out: MLR
[10] = untitled structure table, IC50 subranges, read-out: aCD3
[11] = untitled structure table, IC50 subranges, read-out: aCD28
[12] = untitled structure table, IC50 subranges, read-out: MLR

| Compound | IC50 (Highly purified T cells [1]; [4]) [µM] | IC50 (Highly purified T cells [1]; [5]) [µM] | IC50 (Highly purified T cells [2]; [6]) [µM] | IC50 (Highly purified T cells [2]; [7]) [µM] | IC50 [3, 8] [µM] | IC50 [3, 9] [µM] | IC50 (Highly purified T cells [1]; [10]) [µM] | IC50 (Highly purified T cells [2]; [11]) [µM] | IC50 [3, 12] [µM] |
| --- | --- | --- | --- | --- | --- | --- | --- | --- | --- |
| Nc1nc(N2CCOCC2)c2nc(-c3ccccc3)cnc2n1 [Compound 33, 2-amino-4-morpholino-6-phenylpteridine] | 100 | 100 | 20 | 20 | 15 | 15 |  |  |  |
| Nc1nc(N2CCOCC2)c2nc(-c3ccc(Cl)cc3)cnc2n1 [Compound 34, 2-amino-4-morpholino-6-(4-chlorophenyl)pteridine] | 20 | 20 | 20 | 20 | 12 | 12 |  |  |  |
| COc1ccc(-c2cnc3nc(N)nc(N4CCOCC4)c3n2)cc1OC [Compound 36, 2-amino-4-morpholino-6-(3,4-dimethoxyphenyl)pteridine] | 0.4 | 0.4 | 0.3 | 0.3 | 0.1 | 0.1 |  |  |  |
| Nc1nc(N2CCCCC2)c2nc(-c3ccccc3)cnc2n1 [Compound 37, 2-amino-4-piperidino-6-phenylpteridine] | 80 | 80 | 20 | 20 | 15 | 15 |  |  |  |
| Nc1nc(N2CCCCC2)c2nc(-c3ccc(Cl)cc3)cnc2n1 [Compound 38, 2-amino-4-piperidino-6-(4-chlorophenyl)pteridine] | 70 | 70 | 25 | 25 | 15 | 15 |  |  |  |
| CN1CCN(c2nc(N)nc3ncc(-c4ccccc4)nc23)CC1 [Compound 41, 2-amino-4-N-methylpiperazino-6-phenylpteridine] | 40 | 40 | 25 | 25 | 15 | 15 |  |  |  |
| CN1CCN(c2nc(N)nc3ncc(-c4ccc(Cl)cc4)nc23)CC1 [Compound 42, 2-amino-4-N-methylpiperazino-6-(4-chlorophenyl)pteridine] | 11 | 11 | 4.2 | 4.2 | 4.8 | 4.8 |  |  |  |
| COc1ccc(-c2cnc3nc(N)nc(N4CCN(C)CC4)c3n2)cc1 [Compound 43, 2-amino-4-N-methylpiperazino-6-(4-methoxyphenyl)pteridine] | 11.7 | 11.7 | 4.2 | 4.2 | 12.3 | 12.3 |  |  |  |
| COc1ccc(-c2cnc3nc(N)nc(N4CCN(C)CC4)c3n2)cc1OC [Compound 44] | 7.3 | 7.3 | 6.5 | 6.5 | 2 | 2 |  |  |  |
| Nc1nc(N2CCNCC2)c2nc(-c3ccccc3)cnc2n1 [Compound 46, 2-amino-4-piperazino-6-phenylpteridine] | 11.7 | 11.7 | 5 | 5 | 12 | 12 |  |  |  |
| Nc1nc(N2CCNCC2)c2nc(-c3ccc(Cl)cc3)cnc2n1 [Compound 47, 2-amino-4-piperazino-6-(4-chlorophenyl)pteridine] | 20 | 20 | 15 | 15 | 2 | 2 |  |  |  |
| COc1ccc(-c2cnc3nc(N)nc(N4CCNCC4)c3n2)cc1 [Compound 48, 2-amino-4-piperazino-6-(4-methoxyphenyl)pteridine] | 14 | 14 | 4.5 | 4.5 | 10.5 | 10.5 |  |  |  |
| COc1ccc(-c2cnc3nc(N)nc(N4CCNCC4)c3n2)cc1OC [Compound 49, 2-amino-4-piperazino-6-(3,4-dimethoxyphenyl)pteridine] | 14.8 | 14.8 | 4.5 | 4.5 | 2.8 | 2.8 |  |  |  |
| COc1cc(-c2cnc3nc(N)nc(N(Cc4ccccc4)Cc4ccccc4)c3n2)cc(OC)c1OC [Compound 50, 2-amino-4-dibenzylamino-6-(3,4,5-trimethoxyphenyl)pteridine] |  |  |  |  |  |  | 1 to 15 | 1 to 15 | 1 to 15 |
| Nc1nc(N2CCOCC2)c2nc(-c3ccc4c(c3)OCO4)cnc2n1 [Compound 56, 2-amino-4-morpholino-6-(3,4-formylidene-3,4-dihydroxyphenyl)pteridine] |  |  |  |  |  |  | 16 to 150 | 16 to 150 | 1 to 15 |
| CN(C)c1nc(N)nc2ncc(-c3ccc4c(c3)OCO4)nc12 [Compound 57, 2-amino-4-dimethylamino-6-(3,4-formylidene-3,4-dihydroxyphenyl)pteridine] |  |  |  |  |  |  | 16 to 150 | 16 to 150 | > 151 |
| COc1ccc(-c2cnc3nc(N)nc(N(C)C)c3n2)cc1OC [Compound 59, 2-amino-4-dimethylamino-6-(3,4-dimethoxyphenyl)pteridine] |  |  |  |  |  |  | 1 to 15 | 1 to 15 | < 1 |
| Cc1cnc2nc(N)nc(N(C)C)c2n1 [Compound 60, 2-amino-4-dimethylamino-6-methylpteridine] |  |  |  |  |  |  | 16 to 150 | 16 to 150 | 16 to 150 |
| CCOc1nc(N)nc2ncc(-c3ccccc3)nc12 [Compound 61, 2-amino-4-ethoxy-6-phenylpteridine] |  |  |  |  |  |  | 1 to 15 | 1 to 15 | 1 to 15 |
| CCCNc1nc(N)nc2ncc(-c3ccccc3)nc12 [Compound 62, 2-amino-4-propylamino-6-phenylpteridine] |  |  |  |  |  |  | 16 to 150 | 16 to 150 | 1 to 15 |
| COc1ccc(-c2cnc3nc(NC(C)=O)nc(O)c3n2)cc1OC [Compound 64, 2-acetamido-4-hydroxy-6-(3,4-dimethoxyphenyl)pteridine] |  |  |  |  |  |  | > 151 | 16 to 150 | 16 to 150 |
